In brackets after ≈: the same amount, converted by molar mass.
Columns and labels:
[1] = tested on: multifunction oxidase (MFO) enzymes; settings: background statement; cited from earlier work
[2] = tested on: female house flies, Musca domestica, DDT-resistant (Rsp); experiment: Topical application to female house flies, DDT-resistant (Rsp) strain; settings: read-out: topical LD50 female housefly, DDT-resistant
Procedure: (§1) Compositions of the present invention were tested for insecticidal activities determined by standard methods, and compared with the activities of DDT and other symmetrical analogues of DDT, e.g. methoxychlor. In these tests, female house flies, Musca domestica, under CO2 anesthesia, were treated with topical application of 1 ul drops of w/v solutions of the insecticides in acetone. Three replicates of 20 flies 2-4 days old were treated on the pronotum at each dosage, and at least 5 dosages were used to establish each dosage versus mortality curve. Mortalities were determined by holding the flies at 72° F. (22° C.) with 40% sucrose solution as food. Topical applications were made to both susceptible (SNAIDM) and DDT-resistant (Rsp) strains in exactly the same manner. The results of these evaluations are reported in Table II as LD50 values in ug. of toxicant per gram of insect using the average weight of the house fly as 20 mg. Evaluations of the toxicity of the same compositions to the larvae of the mosquitoes Culex pipiens quinquefasciatus and Anopheles albimanus were made as described by WHO (VBC/1968) and the results are also shown in Table II.

[3] = tested on: female house flies, Musca domestica, susceptible (SNAIDM); experiment: Topical application to female house flies, susceptible (SNAIDM) strain; settings: read-out: topical LD50 female housefly, Susceptible
Procedure: as §1

[4] = tested on: larvae of the mosquito Anopheles albimanus; experiment: Toxicity to mosquito larvae as described by WHO (VBC/1968), Anopheles albimanus; format: in vivo
[5] = tested on: larvae of the mosquito Culex pipiens quinquefasciatus; experiment: Toxicity to mosquito larvae as described by WHO (VBC/1968), Culex pipiens quinquefasciatus; format: in vivo
[6] = background statement; cited from earlier work
insects = settings: background statement, cited from earlier work; for insecticidal activity (in words): compared with DDT towards other species of insects; for insecticidal activity (in words), general: toward certain species of insects

Question: With `Clc1ccc(C(c2ccc(Cl)cc2)C(Cl)Cl)cc1` [DDD, 1,1-dichloro 2,2-bis-(p-chlorophenyl) ethane] as the compound, how does the “susceptibility to attack / detoxication by MFO enzymes” value [1] read?
Answer: The value was “highly resistant to detoxication by MFO enzymes”.

Question: With `ClC(Cl)=C(c1ccc(Cl)cc1)c1ccc(Cl)cc1` [DDE, 1,1-dichloro-2,2-bis-(p-chloro-phyenyl)ethylene] as the compound, how does the “susceptibility to attack / detoxication by MFO enzymes” value [1] read?
Answer: Its value is “highly resistant to detoxication by MFO enzymes”.

Question: What does the source list for `Clc1ccc(C(c2ccc(Cl)cc2)C(Cl)(Cl)Cl)cc1` [DDT, 1,1,1-trichloro-2,2-bis(p-chlorophenyl)ethane, reference compound]?
Answer: susceptibility to attack / detoxication by MFO enzymes [1]: highly resistant to detoxication by MFO enzymes; LD50 [2]: 170 mg/kg; LD50 [3]: 14 mg/kg; LC50 [4]: 0.016 mg/L (≈ 0.0451 µM); LC50 [5]: 0.07 mg/L (≈ 0.197 µM); lipid solubility [6]: high lipid solubility; water solubility [6]: very low water solubility

Question: What does the source list for `COc1ccc(C(c2ccc(SC)cc2)C(Cl)(Cl)Cl)cc1` (stereo not drawn) [Example I, 2-(p-methoxyphenyl)-2-(p-methylthiophenyl)-1,1,1-trichloroethane]?
Answer: LD50 [2]: 80 mg/kg; LD50 [3]: 23.5 mg/kg; LC50 [4]: 0.044 mg/L (≈ 0.122 µM); LC50 [5]: 0.11 mg/L (≈ 0.304 µM)

Question: For `COc1ccc(C(c2ccc(C)cc2)C(Cl)(Cl)Cl)cc1` (stereo not drawn) [Example III], which LD50 [2] is on record?
Answer: Its LD50 is 62.5 mg/kg.

Question: And the LD50 [3]?
Answer: The LD50 was 23.5 mg/kg.

Question: And the LC50 [4]?
Answer: Its LC50 is 0.12 mg/L (≈ 0.364 µM).

Question: What about the LC50 [5] of the same compound?
Answer: Its LC50 is 0.085 mg/L (≈ 0.258 µM).

Question: Which LD50 [2] does the source give for `CCOc1ccc(C(c2ccc(SC)cc2)C(Cl)(Cl)Cl)cc1` (stereo not drawn) [Example II] here?
Answer: The LD50 was 85 mg/kg.

Question: What about the LD50 [3] of the same compound?
Answer: The LD50 was 32 mg/kg.

Question: And the LC50 [4]?
Answer: The LC50 was 0.054 mg/L (≈ 0.144 µM).

Question: And the LC50 [5]?
Answer: Its LC50 is 0.07 mg/L (≈ 0.186 µM).

Question: Which results are given for `CCOc1ccc(C(c2ccc(C)cc2)C(Cl)(Cl)Cl)cc1` (stereo not drawn) [Example IV]?
Answer: LD50 [2]: 27 mg/kg; LD50 [3]: 9 mg/kg; LC50 [4]: 0.11 mg/L (≈ 0.32 µM); LC50 [5]: 0.13 mg/L (≈ 0.378 µM)

Question: With `CCc1ccc(C(c2ccc(C)cc2)C(Cl)(Cl)Cl)cc1` (stereo not drawn) [Example VI] as the compound, how does the LD50 [2] read?
Answer: The LD50 was 28 mg/kg.

Question: What about the LD50 [3] of the same compound?
Answer: Its LD50 is 11 mg/kg.

Question: What about the LC50 [4] of the same compound?
Answer: Its LC50 is 0.23 mg/L (≈ 0.702 µM).

Question: What about the LC50 [5] of the same compound?
Answer: Its LC50 is 0.08 mg/L (≈ 0.244 µM).

Question: For `CCCOc1ccc(C(c2ccc(C)cc2)C(Cl)(Cl)Cl)cc1` (stereo not drawn) [Example V], which LD50 [2] is on record?
Answer: Its LD50 is 55 mg/kg.

Question: What about the LD50 [3] of the same compound?
Answer: Its LD50 is 20 mg/kg.

Question: What about the LC50 [4] of the same compound?
Answer: Its LC50 is 0.2 mg/L (≈ 0.559 µM).

Question: And the LC50 [5]?
Answer: Its LC50 is 0.04 mg/L (≈ 0.112 µM).

Question: Which results are given for `COc1ccc(C(c2ccc(OC)cc2)C(Cl)(Cl)Cl)cc1` [Methoxychlor, 1,1,1-trichloro-2,2-bis-(pmethoxyphenyl)ethane, reference compound]?
Answer: susceptibility to attack / detoxication by MFO enzymes [1]: readily attacked by MFO enzymes; insecticidal activity (in words) (insects): considerably less insecticidal activity than DDT towards other species of insects; insecticidal activity (in words), general (insects): satisfactory insecticidal activity toward certain species of insects; LD50 [2]: 48 mg/kg; LD50 [3]: 45 mg/kg; LC50 [4]: 0.18 mg/L (≈ 0.521 µM); LC50 [5]: 0.067 mg/L (≈ 0.194 µM)

Question: For `CSc1ccc(C(c2ccc(SC)cc2)C(Cl)(Cl)Cl)cc1` [methiochlor, 1,1,1-trichloro-2,2-bis-(pmethiophenyl)ethane], which “susceptibility to attack / detoxication by MFO enzymes” value [1] is on record?
Answer: Its value is “readily attacked by MFO enzymes”.

Question: What about the “insecticidal activity (in words)” value (insects) of the same compound?
Answer: The value was “considerably less insecticidal activity than DDT towards other species of insects”.

Question: And the “insecticidal activity (in words), general” value (insects)?
Answer: The value was “satisfactory insecticidal activity toward certain species of insects”.

Question: Which results are given for `Cc1ccc(C(c2ccc(C)cc2)C(Cl)(Cl)Cl)cc1` [methylchor, 1,1,1-trichloro-2,2-bis (p methylphenyl)ethane]?
Answer: insecticidal activity (in words) (insects): considerably less insecticidal activity than DDT towards other species of insects; insecticidal activity (in words), general (insects): satisfactory insecticidal activity toward certain species of insects

Source: US3939277A, “Insecticidal biodegradable analogues of DDT” (priority 1973, dated 1976)
